pIC50: −log10 of the molar value. Where “and” joins values, the source holds several entries; their conditions need not be identical. Equal entries are not always repeated.
Columns and labels:
[1] = test system: NCI-H322M; test: Growth inhibition of human NCI-H322M cells assessed as growth percentage at 1 uM incubated for 48 hrs by sulforhodamine B assay relative to control; type: functional; settings: read-out: Activity
[2] = test system: MDA-MB-435; test: Growth inhibition of human MDA-MB-435 cells incubated for 48 hrs by sulforhodamine B assay; type: functional; settings: for TGI: MDA-MB-435; for CC50: MDA-MB-435, read-out: LC50 (the source's name)
[3] = test system: HCT-15; test: Growth inhibition of human HCT-15 cells assessed as growth percentage at 100 uM incubated for 48 hrs by sulforhodamine B assay relative to control; type: functional; settings: read-out: Activity
[4] = test system: K562; test: Growth inhibition of human K562 cells assessed as growth percentage at 0.1 uM incubated for 48 hrs by sulforhodamine B assay relative to control; type: functional; settings: read-out: Activity
[5] = test system: TK-10; test: Growth inhibition of human TK-10 cells assessed as growth percentage at 1 uM incubated for 48 hrs by sulforhodamine B assay relative to control; type: functional; settings: read-out: Activity
[6] = test system: HOP-92; test: Growth inhibition of human HOP-92 cells incubated for 48 hrs by sulforhodamine B assay; type: functional
[7] = test system: SK-MEL-2; test: Growth inhibition of human SK-MEL-2 cells assessed as growth percentage at 10 uM incubated for 48 hrs by sulforhodamine B assay relative to control; type: functional; settings: read-out: Activity
[8] = test system: DU-145; test: Growth inhibition of human DU-145 cells assessed as growth percentage at 0.01 uM incubated for 48 hrs by sulforhodamine B assay relative to control; type: functional; settings: read-out: Activity
[9] = test system: 786-0; test: Growth inhibition of human 786-0 cells incubated for 48 hrs by sulforhodamine B assay; type: functional
[10] = test system: SN12C; test: Growth inhibition of human SN12C cells incubated for 48 hrs by sulforhodamine B assay; type: functional
[11] = test system: OVCAR-8; test: Growth inhibition of human OVCAR-8 cells assessed as growth percentage at 100 uM incubated for 48 hrs by sulforhodamine B assay relative to control; type: functional; settings: read-out: Activity
[12] = test system: HCT-116; test: Growth inhibition of human HCT-116 cells assessed as growth percentage at 0.1 uM incubated for 48 hrs by sulforhodamine B assay relative to control; type: functional; settings: read-out: Activity
[13] = test system: HCT-116; test: Growth inhibition of human HCT-116 cells assessed as growth percentage at 0.01 uM incubated for 48 hrs by sulforhodamine B assay relative to control; type: functional; settings: read-out: Activity
[14] = test system: HCT-15; test: Growth inhibition of human HCT-15 cells incubated for 48 hrs by sulforhodamine B assay; type: functional; settings: for TGI: HCT-15
[15] = test system: SN12C; test: Growth inhibition of human SN12C cells assessed as growth percentage at 0.01 uM incubated for 48 hrs by sulforhodamine B assay relative to control; type: functional; settings: read-out: Activity
[16] = test system: CAKI-1; test: Growth inhibition of human CAKI-1 cells assessed as growth percentage at 1 uM incubated for 48 hrs by sulforhodamine B assay relative to control; type: functional; settings: read-out: Activity
[17] = target: High affinity nerve growth factor receptor (Homo sapiens, UniProt P04629); test: Inhibition of human Trk-A using myelin basic protein as substrate incubated for 40 mins in presence of [gamma33P]ATP by scintillation counting method
[18] = test system: Hs-578T; test: Growth inhibition of human Hs-578T cells assessed as growth percentage at 0.01 uM incubated for 48 hrs by sulforhodamine B assay relative to control; type: functional; settings: read-out: Activity
[19] = test system: SK-MEL-5; test: Growth inhibition of human SK-MEL-5 cells assessed as growth percentage at 0.1 uM incubated for 48 hrs by sulforhodamine B assay relative to control; type: functional; settings: read-out: Activity
[20] = test system: CCRF-CEM; test: Growth inhibition of human CCRF-CEM cells assessed as growth percentage at 0.01 uM incubated for 48 hrs by sulforhodamine B assay relative to control; type: functional; settings: read-out: Activity
[21] = test system: CAKI-1; test: Growth inhibition of human CAKI-1 cells assessed as growth percentage at 0.1 uM incubated for 48 hrs by sulforhodamine B assay relative to control; type: functional; settings: read-out: Activity
[22] = test system: HCT-116; test: Growth inhibition of human HCT-116 cells assessed as growth percentage at 10 uM incubated for 48 hrs by sulforhodamine B assay relative to control; type: functional; settings: read-out: Activity
[23] = test system: SR; test: Growth inhibition of human SR cells assessed as growth percentage at 100 uM incubated for 48 hrs by sulforhodamine B assay relative to control; type: functional; settings: read-out: Activity
[24] = test system: K562; test: Growth inhibition of human K562 cells assessed as growth percentage at 1 uM incubated for 48 hrs by sulforhodamine B assay relative to control; type: functional; settings: read-out: Activity
[25] = test system: RXF 393; test: Growth inhibition of human RXF 393 cells assessed as growth percentage at 10 uM incubated for 48 hrs by sulforhodamine B assay relative to control; type: functional; settings: read-out: Activity
[26] = test system: CCRF-CEM; test: Growth inhibition of human CCRF-CEM cells incubated for 48 hrs by sulforhodamine B assay; type: functional
[27] = test system: SW-620; test: Growth inhibition of human SW-620 cells assessed as growth percentage at 100 uM incubated for 48 hrs by sulforhodamine B assay relative to control; type: functional; settings: read-out: Activity
[28] = test system: NCI-H522; test: Growth inhibition of human NCI-H522 cells assessed as growth percentage at 100 uM incubated for 48 hrs by sulforhodamine B assay relative to control; type: functional; settings: read-out: Activity
[29] = test system: IGROV-1; test: Growth inhibition of human IGROV-1 assessed as growth percent at 0.01 uM incubated for 48 hrs by sulforhodamine B assay relative to control; type: functional; settings: read-out: Activity
[30] = test system: A549; test: Growth inhibition of human A549/ATCC cells assessed as growth percentage at 0.01 uM incubated for 48 hrs by sulforhodamine B assay relative to control; type: functional; settings: read-out: Activity
[31] = test system: HOP-92; test: Growth inhibition of human HOP-92 cells assessed as growth percentage at 0.01 uM incubated for 48 hrs by sulforhodamine B assay relative to control; type: functional; settings: read-out: Activity
[32] = target: Fibroblast growth factor receptor 2 (Homo sapiens) (UniProt P21802); test: Inhibition of human FGFR2 at 10 uM using myelin basic protein as substrate incubated for 40 mins in presence of [gamma33P]ATP by scintillation counting method relative to control
[33] = test system: OVCAR-3; test: Growth inhibition of human OVCAR-3 cells assessed as growth percentage at 0.01 uM incubated for 48 hrs by sulforhodamine B assay relative to control; type: functional; settings: read-out: Activity
[34] = test system: HT-29; test: Growth inhibition of human HT-29 cells incubated for 48 hrs by sulforhodamine B assay; type: functional; settings: for GI50: HT-29; for CC50: HT-29, read-out: LC50 (the source's name)
[35] = test system: NCI-H460; test: Growth inhibition of human NCI-H460 cells assessed as growth percentage at 100 uM incubated for 48 hrs by sulforhodamine B assay relative to control; type: functional; settings: read-out: Activity
[36] = test system: HOP-62; test: Growth inhibition of human HOP-62 cells assessed as growth percentage at 10 uM incubated for 48 hrs by sulforhodamine B assay relative to control; type: functional; settings: read-out: Activity
[37] = test system: DU-145; test: Growth inhibition of human DU-145 cells assessed as growth percentage at 1 uM incubated for 48 hrs by sulforhodamine B assay relative to control; type: functional; settings: read-out: Activity
[38] = test system: SF-295; test: Growth inhibition of human SF-295 cells assessed as growth percentage at 1 uM incubated for 48 hrs by sulforhodamine B assay relative to control; type: functional; settings: read-out: Activity

High affinity nerve growth factor receptor, sequence (P04629 whole entry): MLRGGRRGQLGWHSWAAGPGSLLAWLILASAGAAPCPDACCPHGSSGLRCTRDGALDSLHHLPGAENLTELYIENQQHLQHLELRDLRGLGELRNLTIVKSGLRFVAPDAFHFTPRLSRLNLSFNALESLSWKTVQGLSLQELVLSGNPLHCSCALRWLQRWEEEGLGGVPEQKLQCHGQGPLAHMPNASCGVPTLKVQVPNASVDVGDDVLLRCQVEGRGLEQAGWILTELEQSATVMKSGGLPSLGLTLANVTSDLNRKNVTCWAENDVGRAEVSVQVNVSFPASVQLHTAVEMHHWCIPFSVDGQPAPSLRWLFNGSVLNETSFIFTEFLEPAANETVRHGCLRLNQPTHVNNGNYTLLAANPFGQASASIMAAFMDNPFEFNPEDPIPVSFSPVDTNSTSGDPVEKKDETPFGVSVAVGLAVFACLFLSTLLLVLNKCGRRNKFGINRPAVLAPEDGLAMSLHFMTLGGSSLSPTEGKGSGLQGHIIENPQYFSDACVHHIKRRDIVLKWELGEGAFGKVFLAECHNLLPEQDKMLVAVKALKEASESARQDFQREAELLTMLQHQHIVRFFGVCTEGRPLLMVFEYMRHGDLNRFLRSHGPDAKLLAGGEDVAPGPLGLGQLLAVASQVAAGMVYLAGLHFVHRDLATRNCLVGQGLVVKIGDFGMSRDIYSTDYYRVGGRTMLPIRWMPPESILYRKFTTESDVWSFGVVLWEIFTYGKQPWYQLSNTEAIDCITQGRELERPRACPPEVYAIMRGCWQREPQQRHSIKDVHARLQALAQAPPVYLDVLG
Fibroblast growth factor receptor 2 (Homo sapiens), sequence (P21802 22-821 limits assumed): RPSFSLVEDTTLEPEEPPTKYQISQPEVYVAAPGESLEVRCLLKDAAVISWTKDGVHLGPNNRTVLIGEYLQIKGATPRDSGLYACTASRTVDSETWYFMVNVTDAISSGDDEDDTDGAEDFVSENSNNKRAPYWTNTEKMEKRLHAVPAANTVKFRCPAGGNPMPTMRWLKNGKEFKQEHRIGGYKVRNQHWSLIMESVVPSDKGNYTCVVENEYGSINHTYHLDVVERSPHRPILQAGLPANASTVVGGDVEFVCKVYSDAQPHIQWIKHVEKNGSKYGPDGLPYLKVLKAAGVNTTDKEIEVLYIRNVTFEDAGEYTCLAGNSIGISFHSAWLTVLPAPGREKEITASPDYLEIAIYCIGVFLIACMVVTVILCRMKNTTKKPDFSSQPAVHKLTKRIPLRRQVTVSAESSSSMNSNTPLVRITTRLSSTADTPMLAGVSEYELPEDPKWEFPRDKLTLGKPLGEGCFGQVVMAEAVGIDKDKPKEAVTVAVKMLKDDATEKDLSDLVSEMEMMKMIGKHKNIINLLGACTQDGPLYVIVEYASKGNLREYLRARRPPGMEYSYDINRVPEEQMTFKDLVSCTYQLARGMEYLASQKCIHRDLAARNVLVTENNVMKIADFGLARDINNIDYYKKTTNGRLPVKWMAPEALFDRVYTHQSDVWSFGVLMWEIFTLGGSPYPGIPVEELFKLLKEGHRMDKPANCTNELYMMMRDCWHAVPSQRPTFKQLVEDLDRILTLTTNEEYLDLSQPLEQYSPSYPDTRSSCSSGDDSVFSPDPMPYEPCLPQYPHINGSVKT

Nc1nc2[nH]c(CN3CCN(c4cc(Cl)cc(Cl)c4)CC3)c(CN3CCN(c4cc(Cl)cc(Cl)c4)CC3)c2c(=O)[nH]1 was tested, and the growth at 1 µM [1] was 100%, the TGI ([2]; Homo sapiens) was 3040 nM and the GI50 ([2]; Homo sapiens, MDA-MB-435, 48 h) was 1620 nM. The CC50 ([2]; Homo sapiens) was 5720 nM, the growth at 100 µM [3] was -49% and the growth at 0.1 µM [4] was 96%. It also gave a growth at 1 µM [5] of 100%, a GI50 ([6]; Homo sapiens, HOP-92) of 1350 nM and a TGI ([6]; Homo sapiens, HOP-92, 48 h) of 3540 nM. For the same compound, the growth at 10 µM [7] was 108%, the growth at 0.01 µM [8] was 110% and the GI50 [9] was 1570 nM. It also gave a TGI [9] of 3180 nM, a GI50 [10] of 1910 nM and a TGI [10] of 3910 nM. The growth at 100 µM [11] was -44%, the growth at 0.1 µM [12] was 99% and the growth at 0.01 µM [13] was 100%. For the same compound, the TGI ([14]; Homo sapiens) was 4050 nM, the GI50 ([14]; Homo sapiens, HCT-15, 48 h) was 1930 nM and the growth at 0.01 µM [15] was 100%. For the same compound, the growth at 1 µM [16] was 91%, the pIC50 [17] was 4.91 and the growth at 0.01 µM [18] was 89%. The growth at 0.1 µM [19] was 98%, the growth at 0.01 µM [20] was 99% and the growth at 0.1 µM [21] was 90%. For the same compound, the growth at 10 µM [22] was -10.2%, the growth at 100 µM [23] was -30% and the growth at 1 µM [24] was 83%. For the same compound, the growth at 10 µM [25] was 81%, the TGI ([26]; Homo sapiens, CCRF-CEM) was 5520 nM and the GI50 ([26]; Homo sapiens, CCRF-CEM, 48 h) was 2070 nM. It also gave a growth at 100 µM [27] of -79%, a growth at 100 µM [28] of -60% and a growth at 0.01 µM [29] of 104%. The growth at 0.01 µM [30] was 97%, the growth at 0.01 µM [31] was 85% and the inhibition [32] was -0.49%. It also gave a growth at 0.01 µM [33] of 105%, a GI50 [34] of 1740 nM and a TGI ([34]; HT-29, 48 h) of 3410 nM. It also gave a CC50 [34] of 6700 nM, a growth at 100 µM [35] of -58% and a growth at 10 µM [36] of 84.2%. It also gave a growth at 1 µM [37] of 105% and a growth at 1 µM [38] of 89%.
CCCCCCCC(=O)Nc1nc2[nH]c(CN3CCN(Cc4cccc(F)c4)CC3)c(CN3CCN(Cc4cccc(F)c4)CC3)c2c(=O)[nH]1 showed a growth at 1 µM [1] of 77%, a GI50 ([2]; 48 h) of 320 nM and a TGI ([2]; Homo sapiens) of 1240 nM. The GI50 ([2]; Homo sapiens, MDA-MB-435, 48 h) was 317 nM, the CC50 ([2]; Homo sapiens) was 3770 nM and the growth at 100 µM [3] was -85%. The growth at 0.1 µM [4] was 87%, the growth at 1 µM [5] was 94% and the TGI ([6]; 48 h) was 2420 nM and 820 nM. The GI50 ([6]; Homo sapiens, HOP-92) was 1140 nM, the LC50 ([6]; Homo sapiens, HOP-92) was 5140 nM and the growth at 10 µM [7] was -66.9%. The growth at 0.01 µM [8] was 100%, the GI50 [9] was 1540 nM and the LC50 (concentration killing 50% of cells) [9] was 5670 nM. It also gave a TGI [9] of 2950 nM, a GI50 [10] of 1480 nM and an LC50 [10] of 6850 nM. For the same compound, the TGI [10] was 3180 nM, the growth at 100 µM [11] was -81% and the growth at 0.1 µM [12] was 93%. The growth at 0.01 µM [13] was 95%, the GI50 ([14]; 48 h) was 300 nM and the TGI ([14]; Homo sapiens) was 1010 nM. For the same compound, the GI50 ([14]; Homo sapiens, HCT-15, 48 h) was 295 nM, the CC50 ([14]; Homo sapiens, HCT-15, read-out: LC50 (the source's name)) was 3750 nM and the growth at 0.01 µM [15] was 97%. It also gave a growth at 1 µM [16] of 70%, a pIC50 [17] of 5.65 and a growth at 0.01 µM [18] of 97%. It also gave a growth at 0.1 µM [19] of 101%, a growth at 0.01 µM [20] of 98% and a growth at 0.1 µM [21] of 85%. The growth at 10 µM [22] was -96.7%, the growth at 100 µM [23] was -12% and the growth at 1 µM [24] was -31%. For the same compound, the growth at 10 µM [25] was -92.4%, the GI50 ([26]; 48 h) was 250 nM and the LC50 ([26]; 48 h) was 100000 nM and > 1000 nM. The GI50 ([26]; Homo sapiens, CCRF-CEM, 48 h) was 251 nM, the growth at 100 µM [27] was -69% and the growth at 100 µM [28] was -79%. For the same compound, the growth at 0.01 µM [29] was 98%, the growth at 0.01 µM [30] was 98% and the growth at 0.01 µM [31] was 90%. It also gave an inhibition [32] of 25.9%, a growth at 0.01 µM [33] of 100% and a GI50 [34] of 260 nM. It also gave a CC50 [34] of 3760 nM, a growth at 100 µM [35] of -85% and a growth at 10 µM [36] of -93.2%. It also gave a growth at 1 µM [37] of 56% and a growth at 1 µM [38] of 74%.
